Results reported in patent publication US11547681B2, “N-acylethanolamide derivatives and uses thereof” (ELIEM THERAPEUTICS, INC., priority 2016, dated 2023).

Assay: in vitro
Conditions: for Concentration (μM) of analyte PEA, 0 min / Concentration (μM) of analyte PEA, 10 min / Concentration (μM) of analyte PEA, 20 min / Concentration (μM) of analyte PEA, 30 min / Concentration (μM) of analyte PEA, 60 min / % Remaining of Initial (n = 1), 0 min / % Remaining of Initial (n = 1), 10 min / % Remaining of Initial (n = 1), 20 min / % Remaining of Initial (n = 1), 30 min / % Remaining of Initial (n = 1), 60 min: 1 μM; for % Remaining of Initial (n = 1), 0 min: s9, 0 h; for % Remaining of Initial (n = 1), 10 min: s9, 10 min; for % Remaining of Initial (n = 1), 20 min: s9, 20 min; for % Remaining of Initial (n = 1), 30 min: s9, 0.5 h; for % Remaining of Initial (n = 1), 60 min: s9, 1 h; for half-life at 1 μM: s9, Half-life (min)
Protocol: Reaction mixture, minus cofactors, was prepared as described below. Test article was added into the reaction mixture at a final concentration of 1 μM. […] An aliquot of the reaction mixture (without cofactor cocktail) was equilibrated in a shaking water bath at 37° C. for 3 minutes. The reaction was initiated by the addition of cofactor cocktail (see below), and the mixture was then incubated in a shaking water bath at 37° C. Aliquots (100 μL) were withdrawn 0, 10, 20, 30 and 60 minutes. Test article samples were immediately combined with 300 μL of ice-cold acetonitrile containing 1% formic acid. Control samples were immediately combined with 400 μL of ice-cold 50/50 acetonitrile (ACN)/dH2O containing 0.1% formic acid and internal standard to terminate the reaction. Samples were then mixed and centrifuged to precipitate proteins. Calibration standards were prepared in matched matrix. Samples and standards were assayed by LC-MS/MS using electrospray ionization for both the dosed prodrug and the expected drug (PEA). Analytical conditions are outlined in Appendix 8-1. Test article concentration at each time point was compared to the test article concentration at time 0 to determine the percent remaining at each time point. Half-lives were calculated using GraphPad software, fitting to a single-phase exponential decay equation.
Reaction mixture, minus cofactors, was prepared as described below. Test article was added into the reaction mixture at a final concentration of 1 μM. […] An aliquot of the reaction mixture (without cofactor cocktail) was equilibrated in a shaking water bath at 37° C. for 5 minutes. Reaction was initiated by the addition of cofactor cocktail (see below), and mixture was then incubated in a shaking water bath at 37° C. Aliquots (100 μL) were withdrawn at 0, 10, 20, 30, and 60 minutes. Test article samples were immediately combined with 300 μL of ice-cold acetonitrile containing 1% formic acid. Control samples were immediately combined with 400 μL of ice-cold 50/50 acetonitrile (ACN)/dH2O containing 0.1% formic acid and internal standard to terminate the reaction. Samples were then mixed and centrifuged to precipitate proteins. Calibration standards were prepared in matched matrix. Samples and standards were assayed by LC-MS/MS using electrospray ionization for both dosed prodrug and expected drug (PEA). Analytical conditions are outlined in Appendix 10-1. Test article concentration at each time point was compared to test article concentration at time 0 to determine the percent remaining at each time point. Half-lives were calculated using GraphPad software, fitting to a single-phase exponential decay equation.
The reaction mixture, minus cofactors, was prepared as described below. Test article was added into the reaction mixture at a final concentration of 1 μM. […] An aliquot of the reaction mixture (without cofactor cocktail) was equilibrated in a shaking water bath at 37° C. for 3 minutes. Reaction was initiated by the addition of cofactor cocktail (see below), and the mixture was then incubated in a shaking water bath at 37° C. Aliquots (100 μL) were withdrawn at 0, 10, 20, 30, and 60 minutes. Test article samples were immediately combined with 300 μL of ice-cold acetonitrile containing 1% formic acid. Control samples were immediately combined with 400 μL of ice-cold 50/50 acetonitrile (ACN)/dH2O containing 0.1% formic acid and internal standard to terminate the reaction. Samples were then mixed and centrifuged to precipitate proteins. Calibration standards were prepared in matched matrix. Samples and standards were assayed by LC-MS/MS using electrospray ionization for both dosed prodrug and expected drug (PEA). Analytical conditions are outlined in Appendix 13-1. Test article concentration at each time point was compared to the test article concentration at time 0 to determine the percent remaining at each time point.

[1] = male, Sprague-Dawley, rat, calculated half-life in parentheses

## CCCCCCCCCCCCCCCC(=O)NCCOC(=O)CCC(=O)OCC(COC(=O)CCCCCCC)OC(=O)CCCCCCC (stereo not drawn) [Compound I-3, PEA-Succinate-Glycerol-Di-Caprylic]
both, human
  Concentration (μM) of analyte PEA, 0 min: 0.00032 µM
  Concentration (μM) of analyte PEA, 10 min: 0.0058 µM
  Concentration (μM) of analyte PEA, 20 min: 0.017 µM
  Concentration (μM) of analyte PEA, 30 min: 0.015 µM
  Concentration (μM) of analyte PEA, 60 min: 0.0096 µM
  % Remaining of Initial (n = 1), 0 min: 100%
  % Remaining of Initial (n = 1), 10 min: 104%
  % Remaining of Initial (n = 1), 20 min: 89%
  % Remaining of Initial (n = 1), 30 min: 95%
  % Remaining of Initial (n = 1), 60 min: 66%
  half-life at 1 μM: > 1 h
male, Beagle, dog
  Concentration (μM) of analyte PEA, 0 min: 0.010 µM
  Concentration (μM) of analyte PEA, 10 min: 0.030 µM
  Concentration (μM) of analyte PEA, 20 min: 0.035 µM
  Concentration (μM) of analyte PEA, 30 min: 0.031 µM
  Concentration (μM) of analyte PEA, 60 min: 0.029 µM
  % Remaining of Initial (n = 1), 0 min: 100%
  % Remaining of Initial (n = 1), 10 min: 104%
  % Remaining of Initial (n = 1), 20 min: 89%
  % Remaining of Initial (n = 1), 30 min: 80%
  % Remaining of Initial (n = 1), 60 min: 86%
  half-life at 1 μM: > 1 h
male, CD-1, mouse
  Concentration (μM) of analyte PEA, 0 min: 0.013 µM
  Concentration (μM) of analyte PEA, 10 min: 0.031 µM
  Concentration (μM) of analyte PEA, 20 min: 0.022 µM
  Concentration (μM) of analyte PEA, 30 min: 0.023 µM
  Concentration (μM) of analyte PEA, 60 min: 0.025 µM
  % Remaining of Initial (n = 1), 0 min: 100%
  % Remaining of Initial (n = 1), 10 min: 82%
  % Remaining of Initial (n = 1), 20 min: 61%
  % Remaining of Initial (n = 1), 30 min: 78%
  % Remaining of Initial (n = 1), 60 min: 61%
  half-life at 1 μM: > 1 h
male, CD-1, mouse, calculated half-life in parentheses
  half-life at 1 μM: 1.45 h
male, Sprague-Dawley, rat
  Concentration (μM) of analyte PEA, 0 min: 0.015 µM
  Concentration (μM) of analyte PEA, 10 min: 0.045 µM
  Concentration (μM) of analyte PEA, 20 min: 0.033 µM
  Concentration (μM) of analyte PEA, 30 min: 0.017 µM
  Concentration (μM) of analyte PEA, 60 min: 0.013 µM
  % Remaining of Initial (n = 1), 0 min: 100%
  % Remaining of Initial (n = 1), 10 min: 66%
  % Remaining of Initial (n = 1), 20 min: 69%
  % Remaining of Initial (n = 1), 30 min: 71%
  % Remaining of Initial (n = 1), 60 min: 52%
  half-life at 1 μM: > 1 h
[1]
  half-life at 1 μM: 1.2 h

## CC/C=C\C/C=C\C/C=C\C/C=C\C/C=C\CCCC(=O)OCCNC(=O)CCCCCCCCCCCCCCC [Compound I-5]
both, human
  Concentration (μM) of analyte PEA, 0 min: 0.024 µM
  Concentration (μM) of analyte PEA, 10 min: 0.036 µM
  Concentration (μM) of analyte PEA, 20 min: 0.036 µM
  Concentration (μM) of analyte PEA, 30 min: 0.025 µM
  Concentration (μM) of analyte PEA, 60 min: 0.018 µM
  % Remaining of Initial (n = 1), 0 min: 100%
  % Remaining of Initial (n = 1), 10 min: 80%
  % Remaining of Initial (n = 1), 20 min: 81%
  % Remaining of Initial (n = 1), 30 min: 70%
  % Remaining of Initial (n = 1), 60 min: 72%
  half-life at 1 μM: > 1 h
male, Beagle, dog
  Concentration (μM) of analyte PEA, 0 min: 0.024 µM
  Concentration (μM) of analyte PEA, 10 min: 0.044 µM
  Concentration (μM) of analyte PEA, 20 min: 0.036 µM
  Concentration (μM) of analyte PEA, 30 min: 0.041 µM
  Concentration (μM) of analyte PEA, 60 min: 0.038 µM
  % Remaining of Initial (n = 1), 0 min: 100%
  % Remaining of Initial (n = 1), 10 min: 72%
  % Remaining of Initial (n = 1), 20 min: 79%
  % Remaining of Initial (n = 1), 30 min: 74%
  % Remaining of Initial (n = 1), 60 min: 85%
  half-life at 1 μM: > 1 h
male, CD-1, mouse
  Concentration (μM) of analyte PEA, 0 min: 0.046 µM
  Concentration (μM) of analyte PEA, 10 min: 0.061 µM
  Concentration (μM) of analyte PEA, 20 min: 0.043 µM
  Concentration (μM) of analyte PEA, 30 min: 0.029 µM
  Concentration (μM) of analyte PEA, 60 min: 0.018 µM
  % Remaining of Initial (n = 1), 0 min: 100%
  % Remaining of Initial (n = 1), 10 min: 66%
  % Remaining of Initial (n = 1), 20 min: 50%
  % Remaining of Initial (n = 1), 30 min: 59%
  % Remaining of Initial (n = 1), 60 min: 50%
male, Sprague-Dawley, rat
  Concentration (μM) of analyte PEA, 0 min: 0.020 µM
  Concentration (μM) of analyte PEA, 10 min: 0.025 µM
  Concentration (μM) of analyte PEA, 20 min: 0.037 µM
  Concentration (μM) of analyte PEA, 30 min: 0.026 µM
  Concentration (μM) of analyte PEA, 60 min: 0.013 µM
  % Remaining of Initial (n = 1), 0 min: 100%
  % Remaining of Initial (n = 1), 10 min: 98%
  % Remaining of Initial (n = 1), 20 min: 82%
  % Remaining of Initial (n = 1), 30 min: 75%
  % Remaining of Initial (n = 1), 60 min: 67%
  half-life at 1 μM: > 1 h
[1]
  half-life at 1 μM: 1.52 h
